The values below come from patent US5049686A, “Novel large-ring diamine platinum(II) and platinum(IV) chelates” (Warner-Lambert Company, priority 1989, dated 1991).

Common to all, as to assay type: cell-based, murine
One assay concerns L1210DDP5. Briefly: In vitro cytotoxicity, growth inhibition of resistant L1210 cell line L1210DDP5 over 72 hours. The settings on record: for ID50: 72 hours; for factor of crossresistance (resistance ratio): ID50 resistant / ID50 normal cell line, in parentheses, 4320 min. The procedure:
(§1) ID50 values are the concentration of complex required to inhibit the in vitro growth of treated cells to a level of 50% of that for untreated cells over a 72-hour period. The cell lines are suspended in appropriate media at a concentration which results in the cells remaining in log phase growth throughout the treatment period. Serially diluted drug is added to duplicate wells containing the cell growth. After 72 hours of incubation of the cell lines in 5% CO2, the cells are counted and the ID50 values determined.
(§2) Resistance ratio values shown in Table 1 were calculated by dividing the ID50 values against the resistant cell lines by the ID50 values against the normal cell lines. The resistance ratio values shown in the table indicate a measure of the degree of resistance of the cell line to a particular drug.

The next assay relates to L1210S. Kind of assay: In vitro cytotoxicity, growth inhibition of normal L1210 cell line over 72 hours. Particulars: for ID50: normal L1210 cell line, 72 hours; for factor of crossresistance (resistance ratio): ID50 divided by ID50 against normal cell line, in parentheses, 4320 min. The procedure: as §1, §2
A further assay relates to L1210DACH. Briefly: In vitro cytotoxicity, growth inhibition of Pt(DACH)Cl2-resistant L1210 cell line over 72 hours. The settings on record: for ID50 / factor of crossresistance (resistance ratio): L1210DACH; for ID50: 72 hours; for factor of crossresistance (resistance ratio): ID50 resistant / ID50 normal cell line, in parentheses; for factor of crossresistance (resistance ratio) / cross resistance to Pt(DACH)Cl2-resistant L1210 cells in culture: 4320 min. The procedure: as §1, §2

The subject of a further assay is L1210PtR4. Kind of assay: In vitro cytotoxicity, growth inhibition of resistant L1210 cell line L1210PtR4 over 72 hours. Particulars: for ID50: 72 hours; for factor of crossresistance (resistance ratio): ID50 resistant / ID50 normal cell line, in parentheses, 4320 min. The procedure:
as §1, §2

The test system of a further assay is L1210 cell lines. Briefly: In vitro antitumor activity against L1210 cell lines compared with cisplatin. The settings on record: in words. The procedure:
as §1, §2

Assay [1] concerns cisplatin-resistant cells. Kind of assay: In vitro activity against cisplatin-resistant L1210 cells compared with cisplatin. Particulars: in words; for effectiveness against cisplatin-resistant cells: compared with cisplatin. The procedure: as §1, §2

As for `N.N.[Cl][Pt][Cl]` [Cisplatin, cis-diaminedichloroplatinum(II), reference compound], the ID50 in the assay on L1210DDP5 is 5.63 µg/mL; with L1210S it was 0.34 µg/mL; with L1210DACH, 0.467 µg/mL; with L1210PtR4, 3.61 µg/mL.

`NC1CCCCC1N.[Cl][Pt][Cl]` (stereo not drawn) [[Pt(trans-l-DACH)Cl2], [SP-4-2-(1R-trans)]-dichloro(1,2-cyclohexanediamine-N,N')platinum, reference compound]: the ID50 with L1210DDP5 is 0.176 µg/mL; with L1210S, 0.088 µg/mL; in the assay on L1210DACH, 2.67 µg/mL; with L1210PtR4, 0.159 µg/mL. Further, the “factor of crossresistance (resistance ratio)” value (“factor … (resistance ratio)” for short) is 2 in the assay on L1210DDP5, 1 in the assay with L1210S, 30 in the assay on L1210DACH and 1.8 with L1210PtR4. Further, the “cross resistance to Pt(DACH)Cl2-resistant L1210 cells in culture” value (from here on “cross resistance … in culture”) in the assay on L1210DACH was found to be 30 fold.

Regarding “(SP-4-2)-Dichloro(1,5-pentanediamine-N,N')-platinum [Example 1]”, in the assay on L1210DDP5, the ID50 worked out at 1.58 µg/mL and the “factor … (resistance ratio)” value is 3.7. Also, in the assay with L1210S, the “factor … (resistance ratio)” value was found to be 1 and the ID50 amounted to 0.43 µg/mL. Besides, in the assay with L1210DACH, the ID50 came out at 1.17 µg/mL, the “factor … (resistance ratio)” value is given as 2.7 and the “cross resistance … in culture” value is reported as 2.7 fold. Moreover, the “antitumor activity compared to cisplatin (potency and response)” value with L1210 cell lines is “superior to cisplatin both in potency and response”. Moreover, in assay [1], the “effectiveness against cisplatin-resistant cells” value is listed as “more effective than cisplatin against cisplatin-resistant cells” and the “cross resistance to cisplatin” value is given as “some degree of cross resistance to cisplatin”. Further, in the assay with L1210PtR4, the ID50 came to 1.13 µg/mL and the “factor … (resistance ratio)” value came out at 2.6.

In the case of “(SP-4-2)-Dichloro(1,6-hexanediamine-N,N')-platinum [Example 2]”, in the assay with L1210DDP5, the ID50 was found to be 3.7 µg/mL and the “factor … (resistance ratio)” value stood at 4. Further, in the assay with L1210S, the “factor … (resistance ratio)” value was determined as 1 and the ID50 was determined as 0.93 µg/mL. Moreover, in the assay on L1210DACH, the ID50 was determined as 2.13 µg/mL, the “factor … (resistance ratio)” value is 2.3 and the “cross resistance … in culture” value is 2.3 fold. In the assay on L1210 cell lines, the “antitumor activity compared to cisplatin (potency and response)” value is “superior to cisplatin both in potency and response”. Moreover, in assay [1], the “effectiveness against cisplatin-resistant cells” value is listed as “more effective than cisplatin against cisplatin-resistant cells” and the “cross resistance to cisplatin” value is reported as “some degree of cross resistance to cisplatin”. Also, in the assay on L1210PtR4, the ID50 was found to be 2.8 µg/mL and the “factor … (resistance ratio)” value was determined as 3.
